Tested on: microorganisms in the process water
Assay: Microbial count reduction in paper mill process water (3 h contact at 37° C., TGE agar plate count); synergism by the Kull method
Type: cell-based
Details: for Colony forming units per milliliter of sample (CFU/ml) after overnight incubation / Logarithmic Growth Reduction relative to the Control Experiment [log (CFU/ml of control plate) − log (CFU/ml of experimental plate)]: process water pH 7.0, 3 hours at 37° C.; for concentration alone required to yield a thousand fold reduction in the microorganism count of the process water (Qa, Qb): substance alone
Protocol: Samples of process water having a pH of 7.0 obtained from a paper mill were supplemented with Lonzabac® 12.100 and Barquat® MB-80 at the concentrations indicated in Table 1 below. Barquat® MB-80 is an 80% aqueous solution of N-(C12-C16 alkyl)-N-benzyl-N,N-dimethylammonium chloride available from Lonza Inc. of Fair Lawn, N.J. Lonzabac® 12.100 is a 100% N,N-bis(3-aminopropyl)-dodecylamine liquid available from Lonza Inc. The samples were immediately mixed and incubated for 3 hours at 37° C. with agitation in an orbital shaker. After 3 hours, tryptone glucose extract (TGE) agar plates were inoculated with each sample and grown overnight at 37° C. The number of colonies on each plate was then counted.
This experiment was repeated with a sample of process water that was not treated with Lonzabac® 12.100 or Barquat® MB-80 as a control.
Synergism for the solutions in Table 1 against the microorganisms in the process water was calculated by the methods described in C. E. Kull et al., “Mixtures of Quaternary Ammonium Compounds and Long-chain Fatty Acids as Antifungal Agents”, Applied Microbiology, 9:538-541 (1961). The synergism value (QA/Qa+QB/Qb) was determined. QA is the concentration of Lonzabac® 12.100 (in ppm) in a Lonzabac® 12.100/Barquat® MB-80 mixture, which yielded a thousand fold reduction in the microorganism count of the process water. Qa is the concentration of Lonzabac® 12.100 alone (in ppm) required to yield a thousand fold reduction in the microorganism count of the process water. QB is the concentration of Barquat® MB-80 (in ppm) in a Lonzabac® 12.100/Barquat® MB-80 mixture, which yielded a thousand fold reduction in the microorganism count of the process water. Qb is the concentration of Barquat® MB-80 alone (in ppm) required to yield a thousand fold reduction in the microorganism count of the process water.
The procedure in Example 1 was repeated substituting peracetic acid for Barquat® MB-80 with the solutions in Table 2 below.

SMILES	Colony forming units per milliliter of sample (CFU/ml) after overnight incubation (Lonzabac 12.100 15 ppm alone)	Logarithmic Growth Reduction relative to the Control Experiment [log (CFU/ml of control plate) − log (CFU/ml of experimental plate)] (Lonzabac 12.100 15 ppm alone)	Colony forming units per milliliter of sample (CFU/ml) after overnight incubation (Lonzabac 12.100 30 ppm alone)	Logarithmic Growth Reduction relative to the Control Experiment [log (CFU/ml of control plate) − log (CFU/ml of experimental plate)] (Lonzabac 12.100 30 ppm alone)	Colony forming units per milliliter of sample (CFU/ml) after overnight incubation (Lonzabac 12.100 60 ppm alone)	Logarithmic Growth Reduction relative to the Control Experiment [log (CFU/ml of control plate) − log (CFU/ml of experimental plate)] (Lonzabac 12.100 60 ppm alone)	Colony forming units per milliliter of sample (CFU/ml) after overnight incubation (Lonzabac 12.100 90 ppm alone)	Logarithmic Growth Reduction relative to the Control Experiment [log (CFU/ml of control plate) − log (CFU/ml of experimental plate)] (Lonzabac 12.100 90 ppm alone)	concentration alone required to yield a thousand fold reduction in the microorganism count of the process water (Qa, Qb) [ppm]	Colony forming units per milliliter of sample (CFU/ml) after overnight incubation (Peracetic Acid 20 ppm alone)	Logarithmic Growth Reduction relative to the Control Experiment [log (CFU/ml of control plate) − log (CFU/ml of experimental plate)] (Peracetic Acid 20 ppm alone)	Colony forming units per milliliter of sample (CFU/ml) after overnight incubation (Peracetic Acid 50 ppm alone)	Logarithmic Growth Reduction relative to the Control Experiment [log (CFU/ml of control plate) − log (CFU/ml of experimental plate)] (Peracetic Acid 50 ppm alone)
CCCCCCCCCCCCN(CCCN)CCCN [Lonzabac ® 12.100, N,N-bis(3-aminopropyl)-dodecylamine]	6.55 × 10^7 CFU/ml	0.7	6.40 × 10^6 CFU/ml	1.7	3.25 × 10^5 CFU/ml	3.0	1.00 × 10^5 CFU/ml	3.5	60	–	–	–	–
CC(=O)OO [Peracetic Acid, peracetic acid, reference compound]	–	–	–	–	–	–	–	–	50	1.43 × 10^7 CFU/ml	1.3	1.00 × 10^5 CFU/ml	3.2

Source: patent US20030228373A1, “Composition including a triamine and a biocide and a method for inhibiting the growth of microorganisms with the same” (Lonza Inc., priority 2002, published 2003)
